We go through one molecule from PMC6173055, “Structure and function of a glycoside hydrolase family 8 endoxylanase from Teredinibacter turnerae” (Acta Crystallographica. Section D, Structural Biology, 2018).

This assay has as its target T1, TtGH8 (Teredinibacter turnerae, UniProt C5BJ89).
T1 construct: gene TERTU_4506; catalytic domain, residues 41-436; signal peptide and linker removed; N-terminal His6 tag cut off with 3C protease; codon-optimised, expressed in E. coli BL21
The assay is described as follows: thermal shift (SYPRO Orange). It counts as binding. Particulars: 10 mM ligand.

T1 sequence (C5BJ89 entry or part of it): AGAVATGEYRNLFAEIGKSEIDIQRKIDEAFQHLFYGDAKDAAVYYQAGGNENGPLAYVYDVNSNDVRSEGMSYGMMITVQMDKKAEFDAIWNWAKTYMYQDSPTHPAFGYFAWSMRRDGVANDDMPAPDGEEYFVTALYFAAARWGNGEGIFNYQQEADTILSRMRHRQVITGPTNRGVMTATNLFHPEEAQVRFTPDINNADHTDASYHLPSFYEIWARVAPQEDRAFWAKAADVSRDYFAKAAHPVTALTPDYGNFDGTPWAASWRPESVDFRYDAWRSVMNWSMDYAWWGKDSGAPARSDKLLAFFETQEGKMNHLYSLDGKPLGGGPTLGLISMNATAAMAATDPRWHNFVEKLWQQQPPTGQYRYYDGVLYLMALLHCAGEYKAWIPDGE

For `OC1OC[C@@H](O[C@@H]2OC[C@@H](O[C@@H]3OC[C@@H](O[C@@H]4OC[C@@H](O[C@@H]5OC[C@@H](O[C@@H]6OC[C@@H](O)[C@H](O)[C@H]6O)[C@H](O)[C@H]5O)[C@H](O)[C@H]4O)[C@H](O)[C@H]3O)[C@H](O)[C@H]2O)[C@H](O)[C@H]1O` (stereo partly shown) [X6, xylohexaose], the “increase in melting temperature” value was found to be 2.9 °C.
